The subject of assay [1] is HBV cccDNA (HBeAg as surrogate marker) in HepDES19 cells. The experiment in a line: Engineered HepDES19 primary screen assay (HBeAg as surrogate marker for cccDNA). The assay is classed as cell-based. As to conditions: Hepatitis B virus, HepDES19, 120 h. From the text:
The assay was employed to screen for cccDNA inhibitors. HepDES19 is a cccDNA-producing cell line. In this cell line, HBeAg in the cell culture supernatant as surrogate marker, as HBeAg production depends on cccDNA level and activity. HepDES19 is an engineered cell line which contains a 1.1 unit length HBV genome, and pgRNA transcription from the transgene is controlled by Tetracycline (Tet). In the absence of Tet, pgRNA transcription will be induced, but HBV e antigen (HBeAg) could not be produced from this pgRNA due to very short leader sequence before the HBeAg start codon and the start codon is disrupted. Only after cccDNA is formed, the missing leader sequence and start codon mutation would be restored from the 3′-terminal redundancy of pgRNA, and then HBeAg could be synthesized. Therefore, HBeAg could be used as a surrogate marker for cccDNA (Zhou, T. et al., Antiviral Res. (2006), 72 (2), 116-124; Guo, H. et al., J. Virol. (2007), 81 (22), 12472-12484).
HepDES19 cells were seeded at 2×10^6 cells per T150 flask and cultured with the culture medium (Dulbecco's Modified Eagle Medium: Nutrient Mixture F-12 [DMEM-F12, Gibco Cat. 11320-82], 10% Fetal Bovine Serum [FBS, Clontech Cat. 631101], 0.1 mM Non-Essential Amino Acids Solution [NEAA, Gibco Cat. 11140-050], 50 μg/mL Penicillin-Streptomycin [PS, Invitrogen Cat. 15140-163], 500 μg/mL Geneticin [G418, Invitrogen Cat. 10131-027]) containing 3 μg/mL Tet (Sigma, Cat. 87128) for 5 days. Cells were then seeded at 4×10^6 cells per T150 in the same culture medium as described above in the absence of Tet for 8 days. Cells were then harvested and frozen at density of 2×10^6 cells per mL. For compound testing, the frozen cells were thawed and seeded into 96-well plates at a density of 6×10^4 cells per well. At 24 hours after seeding, half log serial dilutions of compounds made with Dimethyl sulfoxide (DMSO, Sigma, Cat. D2650) were further diluted with the same culture medium as described above before they were added to the cells to reach desired final compound concentrations and 1% DMSO concentration. Plates were then incubated at 37° C. for another 5 days before measurement of HBeAg level and cell viability. Intracellular HBeAg level were measured with enzyme-linked immunosorbent assay (ELISA) kit (Shanghai Kehua Diagnostic Medical Products Co., Ltd). Cell viability was assessed using Cell Counting Kit-8 (DonJindo, Cat. CK04-20). IC50 values were derived from the dose-response curve using 4 parameters logistic curve fit method.
The compounds of the present invention were tested for their capacity to inhibit extracellular HBeAg level as described herein.

Assay [2] has as its system HBV (extracellular HBsAg) in primary human hepatocytes. Nature of the assay: Cryopreserved primary human hepatocytes (PHH) HBV infection assay, HBsAg. Type of assay: cell-based. As to conditions: Hepatitis B virus, Hepatocyte, 216 h, HBV-infected cryopreserved PHH, 9 days post-compound treatment, CLIA. The method, then: This assay is used to confirm the anti-HBV effect of the compounds in HBV PHH infection assay. Cryopreserved PHH (BioreclamationIVT, Lot YJM) was thawed at 37° C. and gently transferred into pre-warmed InVitroGRO HT medium (BioreclamationIVT, Cat. S03317).
The mixture was centrifuged at 70 relative centrifugal force (RCF) for 3 minutes at RT, and the supernatant was discarded. Pre-warmed InVitroGRO CP medium (BioreclamationIVT, Cat #S03316) was added to the cell pellet to gently re-suspend cells. The cells were seeded at the density of 5.8×10^4 cells per well to collagen I coated 96-well plate (Gibco, Cat. A1142803) with the InVitroGRO CP medium. All plates were incubated at 37° C. with 5% CO2 and 85% humidity.
At 20 hours after plating, the medium was changed to PHH culture medium (Dulbecco's Modified Eagle Medium (DMEM)/F12 (1:1) (Gibco, Cat. 11320-033), 10% fetal bovine serum (Gibco Cat. 10099141), 100 U/mL penicillin, 100 μg/mL streptomycin (Gibco, Cat. 151401-122), 5 ng/mL human epidermal growth factor (Invitrogen Cat. PHG0311L), 20 ng/mL dexamethasone (Sigma, Cat. D4902) and 250 ng/mL human recombinant insulin (Gibco, Cat. 12585-014)). And the cells were incubated at 37° C. with 5% CO2 and 85% humidity for 4 hours. The medium was then changed to pre-warmed PHH culture medium containing 4% polyethylene glycol (PEG) MW8000 (Sigma, Cat. P1458-50 ML) and 1% DMSO (Sigma, Cat. D2650). 5.8×10^6 genomic equivalents of HBV were added into the medium.
At 24 hours' post-infection, the cells were gently washed with PBS and refreshed with PHH culture medium supplemented with 1% DMSO, and 0.25 mg/mL Matrix gel (Corning, Cat. 356237) at 200 μL per well. All plates were immediately placed in at 37° C. CO2 incubator.
24 hours later, serial dilutions of compounds made with DMSO were further diluted with the same culture medium (PHH culture medium supplemented with 1% DMSO and 0.25 mg/mL Matrix gel as described above) before they were added to the cells to reach desired final compound concentrations and 1% DMSO concentration. The medium containing the compounds were refreshed every three days.
At 9 days' post-compound treatment, extracellular HBsAg level were measured with Chemiluminescence Immuno Assay (CLIA) kit (Autobio, HBsAg Quantitative CLIA).
HBsAg IC50 and HBV DNA IC50 values were derived from the dose-response curve using 4 parameters logistic curve fit method. The compounds of formula (I) have HBsAg IC50<20 μM, particularly <1 μM; and HBV DNA IC50<50 μM.

Molecules are shown by their SMILES.

Usually IC50 stands for the point on the concentration scale where inhibition reaches its midpoint. Read a high IC50 as weaker potency. For the molecule `O=C(O)CCOc1cc(C(F)(F)F)ccc1C1CC(=O)c2cccc(Cl)c2O1` (stereo not shown) [Example 1, 3-[2-(8-chloro-4-oxo-chroman-2-yl)-5-(trifluoromethyl)phenoxy]propanoic Acid], the 50% inhibitory concentration (IC50) in assay [1] came out at 730 nM; in assay [2], 5.31 µM.
As to `O=C(O)CCOc1cc(C(F)(F)F)ccc1C1CC(=O)c2ccc(F)c(Cl)c2O1` (stereo not shown) [Example 2, 3-[2-(8-chloro-7-fluoro-4-oxo-chroman-2-yl)-5-(trifluoromethyl)phenoxy]propanoic Acid], the IC50 stood at 1970 nM in assay [1] and 4.41 µM in assay [2].
Take `O=C(O)CCOc1cc(C(F)(F)F)ccc1C1CC(=O)c2cc(F)cc(Cl)c2O1` (stereo not shown) [Example 3, 3-[2-(8-chloro-6-fluoro-4-oxo-chroman-2-yl)-5-(trifluoromethyl)phenoxy]propanoic Acid]: the IC50 in assay [1] was 5590 nM; in assay [2], 11.2 µM.
For `COc1cc(C2CC(=O)c3cccc(Cl)c3O2)c(OCCC(=O)O)cc1C(F)(F)F` (stereo not shown) [Example 11, 3-[2-(8-chloro-4-oxo-chroman-2-yl)-4-methoxy-5-(trifluoromethyl)phenoxy]propanoic Acid], in that order: 5140 nM and 8.34 µM.
For `O=C(O)CCOc1cc(OC(F)(F)F)ccc1C1CC(=O)c2cccc(Cl)c2O1` (stereo not shown) [Example 13, 3-[2-(8-chloro-4-oxo-chroman-2-yl)-5-(trifluoromethoxy)phenoxy]propanoic Acid], the IC50 was 390 nM in assay [1] and 6.86 µM in assay [2].
`O=C1CC(c2ccc(C(F)(F)F)cc2OCCO)Oc2c1ccc(F)c2Cl` (stereo not shown) [Example 34, 8-chloro-7-fluoro-2-[2-(2-hydroxyethoxy)-4-(trifluoromethyl)phenyl]chroman-4-one] displayed an IC50 in assay [1] of 3360 nM.
With `O=C(O)C(=O)NCCOc1cc(Cl)ccc1C1CC(=O)c2cccc(Cl)c2O1` (stereo not shown) [Example 36, 2-[2-[5-chloro-2-(8-chloro-4-oxo-chroman-2-yl)phenoxy]ethylamino]-2-oxo-acetic Acid], the IC50 in assay [1] stood at 12900 nM.
`O=C1CC(c2ccc(Br)cc2O[C@H]2C[C@@H](C(=O)O)C2)Oc2c(Cl)cccc21` (stereo partly drawn) [Example 37, cis-3-[5-bromo-2-(8-chloro-4-oxo-chroman-2-yl)phenoxy]cyclobutanecarboxylic Acid] returned an IC50 in assay [1] of 670 nM.

The values are drawn from patent publication US20220388972A1, “CHROMAN-4-ONE DERIVATIVES FOR THE TREATMENT AND PROPHYLAXIS OF HEPATITIS B VIRUS INFECTION” (Hoffmann-La Roche Inc., priority 2018, published 2022).
